Results published in patent US20250222123A1, “COMPOUND COMPRISING FC-BINDING UNIT, AND CONJUGATE PREPARED USING SAME” (ABTIS CO., LTD., priority 2022, published 2025).
pKd: −log10 of the molar value. Read-outs that look alike come from different tables or passages of the source.

What was measured:
[1] = molecular target: T1, CLDN18.2 virus-like particle (VLP) (Homo sapiens, UniProt P56856); experiment: Indirect ELISA on CLDN18.2 virus-like particle (VLP); type: binding; details: CLDN18.2 (antigen protein), VLP-coated plate
T1 construct: purchased CUSABIO TECHNOLOGY LLC CSB-MP005498HU (A5)
Description: To confirm the binding strength to an antigen, a CLDN18.2 virus-like particle (VLP) in which the claudin 18.2 protein (CLDN18.2) was expressed was prepared. At this time, CLDN18.2˜VLP is CSB-MP005498HU (A5) from CUSABIO TECHNOLOGY LLC.
After a 96-well plate was coated with the CLDN18.2 VLP for ELISA and treated with antibody-A and ADC-A, respectively, indirect ELISA was performed to measure OD values. At this time, the measured values are illustrated in FIG. 37.
The measured results were used for regression analysis in GraphPad PRISM® 9.0 software to calculate EC50 and Bmax. The antigen binding strengths of antibody-A, ADC-A, antibody-B, and ADC-B were evaluated based on the calculated values.

MIA PaCa-2˜CLDN18.2 = experiment: Cell-based ELISA, binding to antigen-expressing cancer cells
Description: (§1) Four types of cell lines (MIA PaCa-2˜CLDN18.2, PATU8988S, parental MIA PaCa-2 (CLDN18.2-), and SNU601) were prepared. At this time, MIA PaCa-2˜CLDN18.2 and PATU8988S are CLDN18.2-positive pancreatic cancer cell lines. MIA PaCa-2 (CLDN18.2-) is a CLDN18.2-negative pancreatic cancer cell line. SNU601 is a CLDN18.2-positive gastric cancer cell line.
(§2) The prepared cell lines were cultured in DMEM containing 10% FBS and 1% penicillin/streptomycin (MIA PaCa-2˜CLDN18.2, MIA PaCa-2 (CLDN18.2-)), RPMI1640 containing 10% FBS and 1% penicillin/streptomycin (SNU601), and DMEM comprising 5% FBS, 5% horse serum, 1% penicillin/streptomycin, and […] L-glutamine (PATU8988S) in an incubator under the conditions of 37° C. and 5% CO2.
(§3) The prepared cell lines were plated on 96-well culture plates, treated with antibody-A, ADC-A, antibody-B, and ADC-B, respectively, and then cell-based ELISA was performed, and OD values were measured. At this time, the measured values are illustrated in FIGS. 38 to 41.
(§4) The measured results were used for regression analysis in GraphPad PRISM® 9.0 software to calculate EC50 and Bmax. The cell binding strengths of antibody-A, ADC-A, antibody-B, and ADC-B to each cell line were evaluated based on the calculated values.

SNU601 = experiment: as above; details: SNU601 (CLDN18.2+)
Description: as §1, §2, §3, §4

MIA PaCa-2 (CLDN18.2-) = experiment: Cell-based ELISA, CLDN18.2-negative cancer cells; type: binding; details: parental MIA PaCa-2, CLDN 18.2-negative cell line
Description: as §1, §2, §3, §4

In the case of Zolbetuximab [Antibody-B], the Bmax [1] was 2.134, the Bmax (MIA PaCa-2˜CLDN18.2) was 3.053 and the Kd (MIA PaCa-2˜CLDN18.2; pancreatic cancer cell line) was 0.045 µg/mL. It also gave a pKd (MIA PaCa-2˜CLDN18.2; read-out: Kd) of 9.52, a Bmax (SNU601) of 1.701 and a Kd (SNU601; gastric cancer cell line) of 0.032 µg/mL. For the same substance, the pKd (SNU601; read-out: Kd) was 9.67 and the “binding to cell line (in words)” value (MIA PaCa-2 (CLDN18.2-)) was “did not bind”.
